Our source for the IC50 values is patent US20130345215A1, “PYRAZOLOPYRIMIDONE AND PYRAZOLOPYRIDONE INHIBITORS OF TANKYRASE” (Genentech, Inc., priority 2012, published 2013).

This assay has as its system Wnt stimulated TCF transcriptional activity, HEK293-TS 112 TCF reporter cell line. The experiment in a line: Tankyrase 1 Assay (Example 119): Wnt3A-stimulated TOPbrite TCF luciferase reporter. Type of assay: cell-based. Conditions: Compounds I-59 to I-144, procedure in Example 119 (0.5 ug/mL Wnt3A, 16 hours); read-out: TNKS1 (IC50). On the procedure: Inhibition of the Wnt stimulated TCF transcriptional activity by tankyrase inhibitors was determined utilizing a HEK293-TS 112 TCF reporter cell line. A Wnt-responsive luciferase reporter named TOPbrite was constructed by cloning the enhancer element of Super8xTOPFlash containing eight TCF/LEF binding sites into the pGL4.28 vector (Promega) upstream of the minimal promoter element, and selecting for hygromycin B resistance (50 μg/ml). Cells were seeded into 384-well plates in the presence of 0.5 ug/mL of Wnt3A at a density of 20,000 cells per well in 25 ul of F:12 DMEM media supplemented with 10% FBS and 2 mM Glutamax. Cells seeded without the addition of Wnt3A were used as background signal. Compounds of various concentrations were added to cells and incubated at 37 degrees with 5% CO2 for 16 hours. The assay was terminated with the addition of Promega Dual Glo kit per manufacturer's instructions. A ratio of TOPbrite Firefly Luciferase and SV40 Renillla Luciferase was calculated and the background from the neutral wells was subtracted yielding the final normalized measurement of TCF transcriptional activity. Compound IC50s were determined by four-parameter curve fitting using GeneData software.

Take `COCCOc1cc(F)c(C2(C#N)CCN(c3nc4c(cnn4C)c(=O)[nH]3)CC2)c(F)c1` [Compound I-86, 4-[2 6-difluoro-4-(2-methoxyethoxy)phenyl]-1-(1-methyl-4-oxo-5H-pyrazolo[3 4-d]pyrimidin-6-yl)piperidine-4-carbonitrile]: the IC50 amounted to 0.0185 µM. In the case of `Cn1cc(CN2CCN(c3nc4c(cnn4C)c(=O)[nH]3)CC2)cn1` [Compound I-134, 1-methyl-6-[4-[(1-methylpyrazol-4-yl)methyl]piperazin-1-yl]-5H-pyrazolo[3 4-d]pyrimidin-4-one] it was 0.342 µM; in that of `Cn1ncc2c(=O)[nH]c(N3CCN(C4COC4)CC3)nc21` [Compound I-144, 1-methyl-6-[4-(oxetan-3-yl)piperazin-1-yl]-5H-pyrazolo[3 4-d]pyrimidin-4-one], 0.83 µM; in that of `Cn1ncc2c(=O)[nH]c(N3CCN(c4c(F)cc(OC5CCS(=O)(=O)CC5)cc4F)CC3)nc21` [Compound I-70, 6-[4-[4-(1 1-dioxothian-4-yl)oxy-2 6-difluoro-phenyl]piperazin-1-yl]-1-methyl-5H-pyrazolo[3 4-d]pyrimidin-4-one], 0.0079 µM. With `Cn1ncc2c(=O)[nH]c(N3CCN(CC4CCCCC4)CC3)nc21` [Compound I-110, 6-[4-(cyclohexylmethyl)piperazin-1-yl]-1-methyl-5H-pyrazolo[3 4-d]pyrimidin-4-one], the IC50 was 0.0809 µM. Regarding `O=c1[nH]c(N2CCN(c3c(F)cc(F)cc3F)CC2)nc2[nH]ncc12` [Compound I-104, 6-[4-(2 4 6-trifluorophenyl)piperazin-1-yl]-1 5-dihydropyrazolo[3 4-d]pyrimidin-4-one], the IC50 was 0.055 µM. Then `Cn1ncc2c(=O)[nH]c(N3CCN(c4c(F)cc(OC(CO)CCl)cc4F)CC3)nc21` (centres unmarked) [Compound I-64, 6-[4-[4-[1-(chloromethyl)-2-hydroxy-ethoxy]-2 6-difluoro-phenyl]piperazin-1-yl]-1-methyl-5H-pyrazolo[3 4-d]pyrimidin-4-one], with 0.0064 µM. Take `Cn1ncc2c(=O)[nH]c(N3CCN(CC4CCOCC4)CC3)nc21` [Compound I-116, 1-methyl-6-[4-(tetrahydropyran-4-ylmethyl)piperazin-1-yl]-5H-pyrazolo[3 4-d]pyrimidin-4-one]: the IC50 stood at 0.112 µM. For `Cn1ncc2c(=O)[nH]c(N3CCC(O)(c4ccc(F)cc4)CC3)nc21` [Compound I-93, 6-[4-(4-fluorophenyl)-4-hydroxy-1-piperidyl]-1-methyl-5H-pyrazolo[3 4-d]pyrimidin-4-one], the IC50 came out at 0.0246 µM. In the case of `CCn1ccc(C2(C)CCN(c3nc4c(cnn4C)c(=O)[nH]3)CC2)n1` [Compound I-92, 6-[4-(1-ethylpyrazol-3-yl)-4-methyl-1-piperidyl]-1-methyl-5H-pyrazolo[3 4-d]pyrimidin-4-one] it was 0.0245 µM. Then `Cn1ncc2c(=O)[nH]c(-c3ccc(S(C)(=O)=O)cn3)nc21` [Compound I-139, 1-methyl-6-(5-methylsulfonyl-2-pyridyl)-5H-pyrazolo[3 4-d]pyrimidin-4-one], with 0.547 µM; and `COCCO[C@H]1CC[C@H](N2CCN(c3nc4c(cnn4C)c(=O)[nH]3)CC2)CC1` [Compound I-121, 6-[4-[4-(2-methoxyethoxy)cyclohexyl]piperazin-1-yl]-1-methyl-5H-pyrazolo[3 4-d]pyrimidin-4-one], with 0.159 µM. Turning to `Cn1ncc2c(=O)[nH]c(N3CCN(c4c(F)cc(O)cc4F)CC3)nc21` [Compound I-73, 6-[4-(2 6-difluoro-4-hydroxy-phenyl)piperazin-1-yl]-1-methyl-5H-pyrazolo[3 4-d]pyrimidin-4-one], the IC50 is 0.0088 µM. As for `Cn1ncc2c(=O)[nH]c(N3CCC(c4ccccc4)CC3)nc21` [Compound I-101, 1-methyl-6-(4-phenyl-1-piperidyl)-5H-pyrazolo[3 4-d]pyrimidin-4-one], the IC50 is 0.0462 µM. Consider `Cn1ncc2c(=O)[nH]c(N3CCC(C(=O)N4CCCC4)CC3)nc21` [Compound I-129, 1-methyl-6-[4-(pyrrolidine-1-carbonyl)-1-piperidyl)-5H-pyrazolo[3 4-d]pyrimidin-4-one], for which the IC50 is 0.274 µM. For `Cn1cncc1C1CCN(c2nc3c(cnn3C)c(=O)[nH]2)CC1` [Compound I-100, 1-methyl-6-[4-(3-methylimidazol-4-yl)-1-piperidyl]-5H-pyrazolo[3 4-d]pyrimidin-4-one], the IC50 is 0.0438 µM. `Cn1ncc2c(=O)[nH]c(N3CCN(c4c(F)cc(CO)cc4F)CC3)nc21` [Compound I-79, 6-[4-[2 6-difluoro-4-(hydroxymethyl)phenyl]piperazin-1-yl]-1-methyl-5H-pyrazolo[3 4-d]pyrimidin-4-one]: the IC50 came out at 0.0133 µM. As to `Cn1ncc2c(=O)[nH]c(N3CCN(c4c(F)cc(OCC(O)CO)cc4F)CC3)nc21` (centres unmarked) [Compound I-68, 6-[4-[4-(2 3-dihydroxypropoxy)-2 6-difluoro-phenyl]piperazin-1-yl]-1-methyl-5H-pyrazolo[3 4-d]pyrimidin-4-one], the IC50 is 0.007 µM. In the case of `COCCOc1cc(F)c(N2CCN(c3nc4c(cnn4C4CCOCC4)c(=O)[nH]3)CC2)c(F)c1` [Compound I-123, 6-[4-[2 6-difluoro-4-(2-methoxyethoxy)phenyl]piperazin-1-yl]-1-tetrahydropyran-4-yl-5H-pyrazolo[3 4-d]pyrimidin-4-one] it was 0.168 µM. On to `Cn1ncc2c(=O)[nH]c(N3CCC(Cc4ccncc4)C3)nc21` (centres unmarked) [Compound I-138, 1-methyl-6-[3-(4-pyridylmethyl)pyrrolidin-1-yl]-5H-pyrazolo[3 4-d]pyrimidin-4-one], for which the IC50 was 0.536 µM.
